Patent US20150196580A1, “USE OF DEFIBROTIDE FOR THE INHIBITION OF HEPARANASE” (GENTIUM SPA, priority 2006, published 2015)
“Also recorded” adds a separate entry of the source.

What was measured:
[1] = system: Heparanase gene expression; assay: Real-Time PCR of Heparanase gene expression in U266 myeloma cells; type: cell-based; conditions: DF 150 and 400 μg/ml, 24 h, vs saline control, triplicate
Method: (§1) To evaluate the effect of DF either on Heparanase expression and its activity, the U266 and HMEC cells were incubated for 24 h with DF at different concentrations or saline (control cells). After incubation with Defibrotide, the cells were washed with phosphate-buffered saline (PBS) pH 7.4, and different U266 and HMEC samples were prepared for different experiments.
(§2) RNA has been isolated from U266 and HMEC cells (1.5×10^5 Cells/ml) treated with saline (control) or DF at doses of 150 and 400 μg/ml for 24 h. To isolate the RNA were used the RNeasy Mini Kit from Qiagen according the manufacture's instructions.
(§3) The 1% agarose gel electrophoresis, stained with Ethidium Bromide, was performed on all samples to check for presence of clear 28S and 18S ribosomal subunit bands. […]
(§4) In order to perform the Real Time PCR was used the SYBER Green PCR Master Mix Reagent (SYBER Green PCR--Bio-Rad). Direct detection of polymerase chain reaction (PCR) product was monitored by measuring the increase in fluorescence caused by the binding of SYBER Green to double-stranded DNA. […]
Real-Time PCR was performed on cDNAs prepared from U266 cells treated with saline (control) or DF at dose of 150 and 400 μg/ml. The experiments were performed in triplicate and the results are expressed as mRNA levels normalized by the housekeeping actin gene.

[2] = system: Heparanase gene expression; assay: Real-Time PCR of Heparanase gene expression in HMEC cells; type: cell-based, human; conditions: DF 150 μg/ml, 24 h, vs saline control, triplicate
Method: as §1, §2, §3, §4
Real-Time PCR was performed on cDNAs prepared from HMEC cells treated with saline (control) or DF at dose of 150 μg/ml. The experiments were performed in triplicate and the results are expressed as mRNA levels normalized by the housekeeping actin gene.

Heparanase = biological target: T1, Heparanase (Homo sapiens, UniProt Q9Y251); assay: Heparanase activity assay (Heparan Degrading Enzyme Assay Kit) in U266 extracts; type: cell-based; conditions: U266 cells, DF 50, 100 and 150 μg/ml, 24 h, vs saline control, triplicate
T1 construct: The Heparanase activity was measured in U266 extracts (1×10^5 Cell/ml of extraction buffer) by a commercial Heparan Degrading Enzyme Kit; endogenous in cells; host or cells: U266 myeloma cells (cell extract)
T1 sequence (Q9Y251 158-543 limits assumed): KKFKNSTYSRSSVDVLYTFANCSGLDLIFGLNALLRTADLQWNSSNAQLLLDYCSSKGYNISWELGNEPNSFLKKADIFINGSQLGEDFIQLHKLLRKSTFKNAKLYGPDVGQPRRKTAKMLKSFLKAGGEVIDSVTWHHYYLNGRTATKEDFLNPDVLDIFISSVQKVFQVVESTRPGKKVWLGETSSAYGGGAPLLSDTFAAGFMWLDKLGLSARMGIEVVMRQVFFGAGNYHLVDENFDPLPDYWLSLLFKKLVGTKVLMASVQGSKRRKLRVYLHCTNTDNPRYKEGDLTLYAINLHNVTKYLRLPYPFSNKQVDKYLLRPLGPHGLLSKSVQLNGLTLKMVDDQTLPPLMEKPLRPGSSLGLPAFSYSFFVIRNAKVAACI
T1 sequence (Q9Y251 36-109 limits assumed): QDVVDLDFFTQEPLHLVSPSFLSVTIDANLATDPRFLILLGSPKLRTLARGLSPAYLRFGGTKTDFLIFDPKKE
Method: as §1
The Heparanase activity was measured in U266 extracts (1×10^5 Cell/ml of extraction buffer) by a commercial Heparan Degrading Enzyme Kit (Takara-bio Inc.) according to manufacturer's instruction. The U266 cells have been treated with saline (control) or DF at doses of 50, 100 and 150 μg/ml for 24 h.
Heparan Degrading Enzyme Assay Kit measure the activity of heparan degrading enzyme in cultured cells, utilizing the property that heparan-like molecules and bFGF (basic fibroblast growth factor) combine each other. CBD-FGF is a fusion protein of cell-binding domain of human fibronectin and human fibroblast growth factor (Takara-bio Inc.). […]
The activity of Heparanase were measured using the Heparanse Degrading Enzyme Assay kit on U266 cells treated with saline (control) or Defibrotide at dose of 50, 100 and 150 μg/ml. The experiments were performed in triplicate and the activity of Heparanase is shown with decrease of absorbance.

With defibrotide [DF] the “Effect on Heparanase gene expression (mRNA levels normalized by the housekeeping actin gene)” value [1] was “acts on U266 myeloma cells line through altering the Heparanase gene expression; also recorded: down regulation of Heparanase gene”, the “Effect on Heparanase gene expression (mRNA levels normalized by the housekeeping actin gene)” value [2] was “acts on Microvascular endothelial cells through altering the Heparanase gene expression; also recorded: downregulation of Heparanase gene expression on HMEC cells” and the “Effect on enzymatic activity of Heparanase (shown with decrease of absorbance)” value (Heparanase) was “interferes on the Heparanase activity in the myeloma cell line; also recorded: decrease of its enzymatic activity”.
